Tests used:
[1] = in vitro microsomal stability; settings: n=2, T1/2=Ln2/κ
[2] = cited from earlier work; for Tmax for brain: rat brain, intraperitoneal injection
mGlu4 = mGlu4 (Homo sapiens, UniProt Q14833); assay: competitive binding assay with [^3H]2 in mGlu4 transfected CHO cells; settings: 14 versus 13; 23 versus 2
mGlu8 = mGlu8 (Homo sapiens, UniProt O00222); assay: selectivity functional assay on mGlu8; assay type: cell-based
mGlu1 = mGlu1 (Homo sapiens, UniProt Q13255); assay: selectivity functional assay on mGlu1; assay type: cell-based
mGlu2 = mGlu2 (Homo sapiens, UniProt Q14416); assay: selectivity functional assay on mGlu2; assay type: cell-based
mGlu5 = mGlu5 (Homo sapiens, UniProt P41594); assay: selectivity functional assay on mGlu5; assay type: cell-based
mGlu6 = mGlu6 (Homo sapiens, UniProt O15303); assay: selectivity functional assay on mGlu6; assay type: cell-based
[3] = PET ligand for PBR, cited from earlier work

Chain of mGlu4 (Q14833 33-912): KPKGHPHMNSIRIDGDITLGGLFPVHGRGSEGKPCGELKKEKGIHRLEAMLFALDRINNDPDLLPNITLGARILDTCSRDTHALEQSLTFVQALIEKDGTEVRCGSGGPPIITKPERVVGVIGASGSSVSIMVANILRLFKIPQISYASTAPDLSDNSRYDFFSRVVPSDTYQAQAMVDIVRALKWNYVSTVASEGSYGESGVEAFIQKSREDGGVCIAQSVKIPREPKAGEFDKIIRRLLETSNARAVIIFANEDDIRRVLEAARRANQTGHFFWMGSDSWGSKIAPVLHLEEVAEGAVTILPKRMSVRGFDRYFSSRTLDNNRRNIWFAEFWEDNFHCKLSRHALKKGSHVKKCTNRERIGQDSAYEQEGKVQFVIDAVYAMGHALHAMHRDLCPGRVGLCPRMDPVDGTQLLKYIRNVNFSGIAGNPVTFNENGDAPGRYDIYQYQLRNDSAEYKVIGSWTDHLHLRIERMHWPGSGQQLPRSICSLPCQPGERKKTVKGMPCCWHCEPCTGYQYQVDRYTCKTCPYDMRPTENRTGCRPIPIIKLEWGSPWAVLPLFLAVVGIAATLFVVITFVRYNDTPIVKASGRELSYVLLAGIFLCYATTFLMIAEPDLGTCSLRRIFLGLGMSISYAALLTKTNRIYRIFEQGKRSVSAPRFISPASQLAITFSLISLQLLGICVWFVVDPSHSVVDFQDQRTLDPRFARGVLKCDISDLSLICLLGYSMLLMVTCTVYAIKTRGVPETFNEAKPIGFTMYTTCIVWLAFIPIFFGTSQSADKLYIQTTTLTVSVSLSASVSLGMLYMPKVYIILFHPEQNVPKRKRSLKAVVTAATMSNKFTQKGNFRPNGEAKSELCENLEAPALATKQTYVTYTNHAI
Chain of mGlu6 (O15303 25-877): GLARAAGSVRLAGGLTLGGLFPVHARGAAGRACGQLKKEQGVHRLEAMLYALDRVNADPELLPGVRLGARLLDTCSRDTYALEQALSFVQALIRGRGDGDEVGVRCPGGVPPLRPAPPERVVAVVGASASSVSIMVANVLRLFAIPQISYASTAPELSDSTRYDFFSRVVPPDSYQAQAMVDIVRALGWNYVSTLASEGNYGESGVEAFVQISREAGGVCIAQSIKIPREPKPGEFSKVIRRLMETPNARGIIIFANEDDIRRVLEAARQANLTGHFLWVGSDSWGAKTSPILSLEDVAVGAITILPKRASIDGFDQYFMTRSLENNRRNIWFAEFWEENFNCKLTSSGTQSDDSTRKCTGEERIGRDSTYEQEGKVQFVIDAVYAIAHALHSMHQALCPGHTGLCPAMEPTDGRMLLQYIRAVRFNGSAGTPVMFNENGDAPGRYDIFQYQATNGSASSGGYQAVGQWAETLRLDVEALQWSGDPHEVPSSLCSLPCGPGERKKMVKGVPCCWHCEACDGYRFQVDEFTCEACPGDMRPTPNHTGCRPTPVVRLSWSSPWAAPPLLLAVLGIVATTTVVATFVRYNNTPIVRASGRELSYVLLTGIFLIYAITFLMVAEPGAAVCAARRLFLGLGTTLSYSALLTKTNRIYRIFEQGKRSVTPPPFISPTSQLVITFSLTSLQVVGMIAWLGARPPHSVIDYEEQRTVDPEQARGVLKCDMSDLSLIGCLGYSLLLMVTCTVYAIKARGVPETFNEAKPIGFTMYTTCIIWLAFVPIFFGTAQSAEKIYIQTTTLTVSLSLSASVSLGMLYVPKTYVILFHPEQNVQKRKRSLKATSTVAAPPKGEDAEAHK
Chain of mGlu8 (O00222 34-908): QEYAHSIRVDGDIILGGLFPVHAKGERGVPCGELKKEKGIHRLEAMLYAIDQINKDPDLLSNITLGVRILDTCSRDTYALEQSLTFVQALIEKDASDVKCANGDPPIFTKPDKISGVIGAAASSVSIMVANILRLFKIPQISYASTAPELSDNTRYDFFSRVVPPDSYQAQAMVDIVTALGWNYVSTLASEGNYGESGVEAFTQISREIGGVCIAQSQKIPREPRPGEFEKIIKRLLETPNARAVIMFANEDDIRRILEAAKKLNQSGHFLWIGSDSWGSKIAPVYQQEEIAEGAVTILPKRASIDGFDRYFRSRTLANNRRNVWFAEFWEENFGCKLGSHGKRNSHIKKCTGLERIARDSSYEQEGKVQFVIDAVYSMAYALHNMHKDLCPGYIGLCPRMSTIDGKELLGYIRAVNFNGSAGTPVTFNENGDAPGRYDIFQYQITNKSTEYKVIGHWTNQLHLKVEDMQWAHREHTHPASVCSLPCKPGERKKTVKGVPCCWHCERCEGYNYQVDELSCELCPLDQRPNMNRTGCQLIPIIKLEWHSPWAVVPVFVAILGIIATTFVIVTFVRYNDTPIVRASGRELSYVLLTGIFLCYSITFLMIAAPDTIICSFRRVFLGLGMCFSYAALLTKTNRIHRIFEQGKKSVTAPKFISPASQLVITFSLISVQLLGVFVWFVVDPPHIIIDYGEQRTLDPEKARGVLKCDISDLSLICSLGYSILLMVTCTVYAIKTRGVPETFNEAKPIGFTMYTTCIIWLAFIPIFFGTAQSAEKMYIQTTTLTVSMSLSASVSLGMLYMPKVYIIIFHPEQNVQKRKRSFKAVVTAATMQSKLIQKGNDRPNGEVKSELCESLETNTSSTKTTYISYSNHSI
Chain of mGlu5 (P41594 21-1212): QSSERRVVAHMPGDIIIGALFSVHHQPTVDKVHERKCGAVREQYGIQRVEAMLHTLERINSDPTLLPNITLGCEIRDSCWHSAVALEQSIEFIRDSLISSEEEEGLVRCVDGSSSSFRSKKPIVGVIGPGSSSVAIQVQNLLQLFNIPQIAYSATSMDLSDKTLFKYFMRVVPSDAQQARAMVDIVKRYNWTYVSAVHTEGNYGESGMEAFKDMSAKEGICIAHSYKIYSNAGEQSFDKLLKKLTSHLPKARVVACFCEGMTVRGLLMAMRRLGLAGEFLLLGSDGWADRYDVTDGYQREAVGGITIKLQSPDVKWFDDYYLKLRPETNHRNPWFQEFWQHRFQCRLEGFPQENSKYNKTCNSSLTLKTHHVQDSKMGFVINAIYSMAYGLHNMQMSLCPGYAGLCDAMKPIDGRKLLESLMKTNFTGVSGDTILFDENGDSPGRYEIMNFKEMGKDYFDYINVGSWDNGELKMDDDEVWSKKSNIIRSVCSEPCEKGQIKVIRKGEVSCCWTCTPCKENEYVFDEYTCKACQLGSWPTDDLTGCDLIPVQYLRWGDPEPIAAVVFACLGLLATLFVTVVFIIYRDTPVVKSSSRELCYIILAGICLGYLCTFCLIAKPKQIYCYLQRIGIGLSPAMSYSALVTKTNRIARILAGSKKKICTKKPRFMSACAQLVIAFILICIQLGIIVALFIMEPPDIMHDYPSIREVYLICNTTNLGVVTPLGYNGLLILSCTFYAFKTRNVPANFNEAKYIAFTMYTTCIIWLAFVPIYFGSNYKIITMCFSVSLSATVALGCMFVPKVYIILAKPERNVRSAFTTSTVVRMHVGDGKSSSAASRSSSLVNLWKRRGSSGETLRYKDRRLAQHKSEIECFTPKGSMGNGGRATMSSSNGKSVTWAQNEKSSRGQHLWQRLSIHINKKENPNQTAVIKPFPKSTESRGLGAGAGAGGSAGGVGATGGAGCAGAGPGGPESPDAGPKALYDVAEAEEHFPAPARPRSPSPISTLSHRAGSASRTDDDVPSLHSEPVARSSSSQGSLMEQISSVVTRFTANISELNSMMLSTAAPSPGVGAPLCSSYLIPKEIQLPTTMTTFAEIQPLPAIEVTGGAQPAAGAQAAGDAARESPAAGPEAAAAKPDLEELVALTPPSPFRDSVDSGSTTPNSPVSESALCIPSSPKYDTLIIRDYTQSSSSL
Chain of mGlu2 (Q14416 19-872): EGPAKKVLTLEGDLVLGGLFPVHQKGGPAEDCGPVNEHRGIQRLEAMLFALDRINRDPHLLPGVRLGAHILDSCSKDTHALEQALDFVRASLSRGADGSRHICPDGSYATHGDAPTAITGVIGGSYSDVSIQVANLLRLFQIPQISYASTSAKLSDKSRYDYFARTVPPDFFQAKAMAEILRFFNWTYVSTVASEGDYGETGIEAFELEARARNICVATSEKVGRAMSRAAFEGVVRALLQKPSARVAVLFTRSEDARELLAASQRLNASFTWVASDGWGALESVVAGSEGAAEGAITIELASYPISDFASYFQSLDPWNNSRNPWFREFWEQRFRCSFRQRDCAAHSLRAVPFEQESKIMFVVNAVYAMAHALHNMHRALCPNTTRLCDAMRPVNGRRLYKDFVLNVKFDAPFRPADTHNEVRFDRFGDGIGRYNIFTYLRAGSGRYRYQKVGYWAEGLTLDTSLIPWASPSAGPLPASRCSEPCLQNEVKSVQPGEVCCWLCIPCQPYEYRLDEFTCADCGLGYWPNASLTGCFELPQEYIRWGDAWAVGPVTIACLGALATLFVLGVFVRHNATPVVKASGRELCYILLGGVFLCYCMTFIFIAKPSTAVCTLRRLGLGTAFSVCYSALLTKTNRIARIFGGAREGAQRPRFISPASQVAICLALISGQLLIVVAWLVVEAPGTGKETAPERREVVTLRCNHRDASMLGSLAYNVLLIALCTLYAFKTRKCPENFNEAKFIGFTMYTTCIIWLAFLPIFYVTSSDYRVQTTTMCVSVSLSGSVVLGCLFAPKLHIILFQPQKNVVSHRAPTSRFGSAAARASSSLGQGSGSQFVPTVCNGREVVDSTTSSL

In the case of `O=C(Nc1cccc(OC(F)F)c1)c1ccccn1` [Compound 3], the “κ (decay constant, slope of log concentration vs time profile)” value [1] is listed as 0.132, the Tmax for brain [2] is listed as 30 min and the “brain:plasma (B/P) partition coefficient” value ([2]; rat, AUC0–8h, Brain/AUC0–8h, Plasma) is listed as 9.9.

For `O=C(Nc1ccc(Cl)c(OCF)c1)c1ccccn1` [Compound 23], the “fold enhancement in affinity” value (mGlu4) was 1.6 fold and the “κ (decay constant, slope of log concentration vs time profile)” value [1] was 0.120.

For `[2H]C([2H])(F)Oc1cc(NC(=O)c2ccccn2)ccc1Cl` [Compound 24], the “activity against mGlu8” value (mGlu8) was “little activity”, the “activity against mGlu1” value (mGlu1) was “little activity” and the “activity against mGlu2” value (mGlu2) was “little activity”. The “activity against mGlu5” value (mGlu5) was “little activity”, the “κ (decay constant, slope of log concentration vs time profile)” value [1] was 0.093 and the “activity against mGlu6” value (mGlu6) was “little activity”.

In the case of `[2H]C([2H])([18F])Oc1ccc(OC)cc1CN(C(C)=O)c1cc(F)ccc1Oc1ccccc1` [N-(5-fluoro-2-phenoxyphenyl)-N-(2-[^18F]fluoromethoxy-d2-5-methoxybenzyl)acetamide], the “half time (T1/2) in the brain” value ([3]; brain) is given as > 60 min and the “half time (T1/2) in the plasma” value ([3]; plasma) is given as 2.575 min.

With `Cc1ccnc(Nc2nc(-c3cn[nH]c3)c(C)s2)n1` [Compound 4] the “κ (decay constant, slope of log concentration vs time profile)” value [1] was 0.099.

For `COc1cc(NC(=O)c2ccccn2)ccc1Cl` [Compound 2], the “κ (decay constant, slope of log concentration vs time profile)” value [1] is listed as 0.141 and the Tmax for brain [2] is listed as 30 min.

In the case of `CSc1cccc(NC(=O)c2ccccn2)c1` [Compound 14], the “fold enhancement in affinity” value (mGlu4) is reported as 2.8 fold.
